Assay results: the supplement of paper PMC10307832

Columns and labels:
Assay in all cases: relative viability (nuclei count vs DMSO), 5 days (fraction); higher = more cells survive
[1] = tested on: NCI-H1975
Outline: (§1)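 Relative viability equals treated-well nuclei counts divided by vehicle-well nuclei counts. Counts came from 4× images of lung cancer cell lines grown in 1536-well plates for 5 days after pin-tool dosing on the day after seeding. Dosing used one drug alone or a fixed anchor-drug dose plus five library-drug doses (not always all listed) in √10 steps, and values are medians of duplicate plates.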

[2] = tested on: NCI-H520
Outline: as §1

[3] = tested on: SW 900
Outline: as §1

[4] = tested on: NCI-H1734
Outline: as §1

[5] = tested on: ChaGo-K-1
Outline: as §1

[6] = tested on: NCI-H596
Outline: as §1

[7] = tested on: H3255
Outline: as §1

[8] = tested on: A-427
Outline: as §1

[9] = tested on: NCI-H2170
Outline: as §1

[10] = tested on: SK-MES-1
Outline: as §1

[11] = tested on: PC-3 [JPC-3]
Outline: as §1

[12] = tested on: NCI-H23
Outline: as §1

[13] = tested on: EKVX
Outline: as §1

[14] = tested on: NCI-H1755
Outline: as §1

[15] = tested on: LK-2
Outline: as §1

[16] = tested on: COR-L 105
Outline: as §1

[17] = tested on: HCC-366
Outline: as §1

[18] = tested on: NCI-H441
Outline: as §1

[19] = tested on: LOU-NH91
Outline: as §1

[20] = tested on: NCI-H1666
Outline: as §1

[21] = tested on: EMC-BAC-2
Outline: as §1

NC(=O)Nc1cc(-c2cccc(F)c2)sc1C(=O)N[C@H]1CCCNC1 [AZD7762] + Cc1cc(Nc2cc(N3CCN(C)CC3)nc(Sc3ccc(NC(=O)C4CC4)cc3)n2)n[nH]1 [Tozasertib] (partner 0.1 µM)
relative viability ([1]; first compound 0.01 µM): 0.762 | relative viability ([1]; first compound 0.03162 µM): 0.721 | relative viability ([1]; first compound 0.1 µM): 0.589 | relative viability ([1]; first compound 0.3162 µM): 0.469 | relative viability ([1]; first compound 1 µM): 0.367 | relative viability ([2]; first compound 0.01 µM): 0.493 | relative viability ([2]; first compound 0.03162 µM): 0.36 | relative viability ([2]; first compound 0.1 µM): 0.425 | relative viability ([2]; first compound 0.3162 µM): 0.39 | relative viability ([2]; first compound 1 µM): 0.275 | relative viability ([3]; first compound 0.01 µM): 0.713 | relative viability ([3]; first compound 0.03162 µM): 0.536 | relative viability ([3]; first compound 0.1 µM): 0.743 | relative viability ([3]; first compound 0.3162 µM): 0.663 | relative viability ([3]; first compound 1 µM): 0.403 | relative viability ([4]; first compound 0.01 µM): 0.263 | relative viability ([4]; first compound 0.03162 µM): 0.25 | relative viability ([4]; first compound 0.1 µM): 0.234 | relative viability ([4]; first compound 0.3162 µM): 0.22 | relative viability ([4]; first compound 1 µM): 0.199 | relative viability ([5]; first compound 0.01 µM): 0.215 | relative viability ([5]; first compound 0.03162 µM): 0.224 | relative viability ([5]; first compound 0.1 µM): 0.239 | relative viability ([5]; first compound 0.3162 µM): 0.197 | relative viability ([5]; first compound 1 µM): 0.227 | relative viability ([6]; first compound 0.01 µM): 0.978 | relative viability ([6]; first compound 0.03162 µM): 0.83 | relative viability ([6]; first compound 0.1 µM): 0.847 | relative viability ([6]; first compound 0.3162 µM): 0.946 | relative viability ([6]; first compound 1 µM): 0.793 | relative viability ([7]; first compound 0.01 µM): 0.704 | relative viability ([7]; first compound 0.03162 µM): 0.595 | relative viability ([7]; first compound 0.1 µM): 0.677 | relative viability ([7]; first compound 0.3162 µM): 0.591 | relative viability ([7]; first compound 1 µM): 0.576 | relative viability ([8]; first compound 0.01 µM): 0.215 | relative viability ([8]; first compound 0.03162 µM): 0.218 | relative viability ([8]; first compound 0.1 µM): 0.207 | relative viability ([8]; first compound 0.3162 µM): 0.179 | relative viability ([8]; first compound 1 µM): 0.175 | relative viability ([9]; first compound 0.01 µM): 0.781 | relative viability ([9]; first compound 0.03162 µM): 0.726 | relative viability ([9]; first compound 0.1 µM): 0.697 | relative viability ([9]; first compound 0.3162 µM): 0.788 | relative viability ([9]; first compound 1 µM): 0.726 | relative viability ([10]; first compound 0.01 µM): 0.936 | relative viability ([10]; first compound 0.03162 µM): 0.865 | relative viability ([10]; first compound 0.1 µM): 0.798 | relative viability ([10]; first compound 0.3162 µM): 0.262 | relative viability ([10]; first compound 1 µM): 0.129 | relative viability ([11]; first compound 0.01 µM): 0.859 | relative viability ([11]; first compound 0.03162 µM): 0.891 | relative viability ([11]; first compound 0.1 µM): 0.836 | relative viability ([11]; first compound 0.3162 µM): 0.873 | relative viability ([11]; first compound 1 µM): 0.85 | relative viability ([12]; first compound 0.01 µM): 0.41 | relative viability ([12]; first compound 0.03162 µM): 0.711 | relative viability ([12]; first compound 0.1 µM): 0.558 | relative viability ([12]; first compound 0.3162 µM): 0.33 | relative viability ([12]; first compound 1 µM): 0.209 | relative viability ([13]; first compound 0.01 µM): 0.393 | relative viability ([13]; first compound 0.03162 µM): 0.353 | relative viability ([13]; first compound 0.1 µM): 0.414 | relative viability ([13]; first compound 0.3162 µM): 0.394 | relative viability ([13]; first compound 1 µM): 0.255 | relative viability ([14]; first compound 0.01 µM): 0.767 | relative viability ([14]; first compound 0.03162 µM): 0.572 | relative viability ([14]; first compound 0.1 µM): 0.687 | relative viability ([14]; first compound 0.3162 µM): 0.539 | relative viability ([14]; first compound 1 µM): 0.421 | relative viability ([15]; first compound 0.01 µM): 0.194 | relative viability ([15]; first compound 0.03162 µM): 0.186 | relative viability ([15]; first compound 0.1 µM): 0.195 | relative viability ([15]; first compound 0.3162 µM): 0.156 | relative viability ([15]; first compound 1 µM): 0.165 | relative viability ([16]; first compound 0.01 µM): 0.348 | relative viability ([16]; first compound 0.03162 µM): 0.311 | relative viability ([16]; first compound 0.1 µM): 0.328 | relative viability ([16]; first compound 0.3162 µM): 0.3 | relative viability ([16]; first compound 1 µM): 0.258 | relative viability ([17]; first compound 0.01 µM): 0.144 | relative viability ([17]; first compound 0.03162 µM): 0.164 | relative viability ([17]; first compound 0.1 µM): 0.125 | relative viability ([17]; first compound 0.3162 µM): 0.119 | relative viability ([17]; first compound 1 µM): 0.0666 | relative viability ([18]; first compound 0.01 µM): 0.801 | relative viability ([18]; first compound 0.03162 µM): 0.907 | relative viability ([18]; first compound 0.1 µM): 0.908 | relative viability ([18]; first compound 0.3162 µM): 0.925 | relative viability ([18]; first compound 1 µM): 0.587 | relative viability ([19]; first compound 0.01 µM): 0.741 | relative viability ([19]; first compound 0.03162 µM): 0.701 | relative viability ([19]; first compound 0.1 µM): 0.665 | relative viability ([19]; first compound 0.3162 µM): 0.623 | relative viability ([19]; first compound 1 µM): 0.429 | relative viability ([20]; first compound 0.01 µM): 0.703 | relative viability ([20]; first compound 0.03162 µM): 0.748 | relative viability ([20]; first compound 0.1 µM): 0.68 | relative viability ([20]; first compound 0.3162 µM): 0.724 | relative viability ([20]; first compound 1 µM): 0.47 | relative viability ([21]; first compound 0.01 µM): 0.295 | relative viability ([21]; first compound 0.03162 µM): 0.302 | relative viability ([21]; first compound 0.1 µM): 0.326 | relative viability ([21]; first compound 0.3162 µM): 0.321 | relative viability ([21]; first compound 1 µM): 0.282
